Calls of active or inactive are those of the source. The rule behind the calls is not given here.
Assays:
[1] = biological target: NB7+Caspase-8; assay: TRAIL sensitizers in caspase-8 expressing neuroblastoma cells, dose response, NB7 cells plus caspase-8, luminescence, panel (AID 652002); settings: NB7 neuroblastoma +caspase-8, TRAIL sensitization, luminescence viability, with TRAIL
[2] = as above; settings: NB7 neuroblastoma +caspase-8, no TRAIL, compound-alone cytotoxicity counter-screen, luminescence viability, NB7+Caspase-8
[3] = biological target: Tumor necrosis factor receptor superfamily member 10B (Homo sapiens) (UniProt O14763); assay: as above; settings: NB7 neuroblastoma +caspase-8, TRAIL sensitization, luminescence viability; NB7+Caspase-8; with TRAIL, mean of runs
Chain of Tumor necrosis factor receptor superfamily member 10B (Homo sapiens) (O14763 whole entry, looked up): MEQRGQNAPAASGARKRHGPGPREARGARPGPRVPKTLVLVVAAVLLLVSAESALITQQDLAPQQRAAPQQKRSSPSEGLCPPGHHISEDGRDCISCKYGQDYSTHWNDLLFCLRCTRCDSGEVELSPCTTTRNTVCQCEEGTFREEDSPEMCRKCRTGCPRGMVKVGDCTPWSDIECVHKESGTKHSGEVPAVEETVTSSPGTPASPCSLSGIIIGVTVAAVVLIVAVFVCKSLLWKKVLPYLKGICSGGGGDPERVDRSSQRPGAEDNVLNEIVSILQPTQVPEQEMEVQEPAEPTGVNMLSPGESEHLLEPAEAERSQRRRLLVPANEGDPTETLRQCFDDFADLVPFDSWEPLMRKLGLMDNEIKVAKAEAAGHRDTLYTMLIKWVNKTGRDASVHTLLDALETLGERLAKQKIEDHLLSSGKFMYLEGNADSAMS

[4] = run 1, single replicate panel EC50
[5] = run 2, single replicate panel EC50

Row | Compound | EC50 [1, 4] | EC50 [1, 5] | EC50 ([2]; mean of runs) | EC50 [2, 4] | EC50 [2, 5] | EC50 [3]
1 | Cc1ccc(NC(=O)c2cc3ccccc3o2)nc1 | > 12.5 µM | 8.86 µM | inactive | 7.34 µM | 11 µM | inactive
2 | COCCNc1c(-c2cc3ccc(C)c(C)c3[nH]c2=O)nc2ccccn12 | 8.39 µM | 4.64 µM | inactive | > 12.5 µM | 6.1 µM | inactive
3 | CC(C)C[C@H](NC(=O)c1nc[nH]c1C(=O)N[C@@H](CCCCNC(=O)OC(C)(C)C)C(=O)OC(C)(C)C)C(=O)OCc1ccccc1 | > 12.5 µM | > 12.5 µM | > 12.5 µM (inactive) | > 12.5 µM | > 12.5 µM | > 12.5 µM (inactive)
4 | Cc1ccc2oc(-c3cccc(N)c3)nc2c1 | > 12.5 µM | 5.69 µM | inactive | 4.71 µM | 7.88 µM | inactive
5 | Cn1nnc(NC(=O)c2ccc(C(C)(C)C)cc2)n1 | > 12.5 µM | 5.01 µM | inactive | > 12.5 µM | 5.83 µM | inactive
6 | O=C(NC(=S)Nc1nc2c(s1)CCCC2)c1ccccc1 | 7.43 µM | > 12.5 µM | > 12.5 µM (inactive) | > 12.5 µM | > 12.5 µM | inactive
7 | Cc1ccn2cc(C(=O)Nc3ccc4c(c3)OCCO4)nc2c1 | > 12.5 µM | 4.29 µM | inactive | 7.08 µM | 8.4 µM | inactive
8 | C(=C\c1ccco1)/c1nc2ccccc2[nH]1 | > 12.5 µM | > 12.5 µM | > 12.5 µM (inactive) | > 12.5 µM | > 12.5 µM | > 12.5 µM (inactive)
9 | CCN(CC)c1ccc(/C=N/NC(=O)c2ccco2)cc1 | > 12.5 µM | > 12.5 µM | > 12.5 µM (inactive) | > 12.5 µM | > 12.5 µM | > 12.5 µM (inactive)
10 | O=C(Nc1cnc2ccccn2c1=O)c1ccc(Cl)cc1Cl | > 12.5 µM | > 12.5 µM | > 12.5 µM (inactive) | > 12.5 µM | > 12.5 µM | > 12.5 µM (inactive)
11 | Cc1ccc(N=C/C(C(=O)C(F)(F)F)=C(\O)c2cccs2)cc1 | 6.11 µM | 4 µM | inactive | > 12.5 µM | 1.87 µM | inactive
12 | COC(=O)c1ccc(/C=C(\C#N)c2ccccn2)cc1 | > 12.5 µM | > 12.5 µM | > 12.5 µM (inactive) | > 12.5 µM | > 12.5 µM | > 12.5 µM (inactive)
13 | CCOC(=O)[C@]12Cc3cc4ccccc4cc3[C@H]1N(Cc1ccccc1)C(=O)c1ccccc12 | > 12.5 µM | > 12.5 µM | > 12.5 µM (inactive) | > 12.5 µM | > 12.5 µM | > 12.5 µM (inactive)
14 | CC(C)CCn1c(=O)c(C(=O)Nc2ccccc2S(N)(=O)=O)c(O)c2ccccc21 | > 12.5 µM | > 12.5 µM | > 12.5 µM (inactive) | > 12.5 µM | > 12.5 µM | > 12.5 µM (inactive)
15 | c1ccc(Nc2nnc(-c3cccnc3)s2)cc1 | > 12.5 µM | 5.66 µM | > 12.5 µM (inactive) | > 12.5 µM | > 12.5 µM | inactive
16 | CC1(C)N=C(N)N=C(N)N1c1ccc(Oc2ccc(Cl)cc2)c(Cl)c1 | 1.33 µM | 0.948 µM | inactive | 1.64 µM | 0.423 µM | inactive
17 | COC(=O)[C@]12CCCCC=C1N(Cc1cccc3ccccc13)C(=O)[C@H](CC(=O)NCc1ccc(OC)c(OC)c1)C2 | > 12.5 µM | 10.7 µM | inactive | > 12.5 µM | 10.2 µM | inactive
18 | CN(C(=O)COC(=O)c1cnc(Cl)c(Cl)c1)C1CCCCC1 | > 12.5 µM | > 12.5 µM | > 12.5 µM (inactive) | > 12.5 µM | > 12.5 µM | > 12.5 µM (inactive)
19 | COc1ccc(-c2nc(-c3ccc(NC(=O)c4ccncc4)cc3)no2)cc1OC | > 12.5 µM | > 12.5 µM | > 12.5 µM (inactive) | > 12.5 µM | > 12.5 µM | > 12.5 µM (inactive)
20 | CN(C)S(=O)(=O)c1ccc(C(=O)Nc2nnc(SCC(=O)NCC3CCCO3)s2)cc1 (stereo not given) | > 12.5 µM | > 12.5 µM | > 12.5 µM (inactive) | > 12.5 µM | > 12.5 µM | > 12.5 µM (inactive)

Source: PubChem BioAssay AID652002 (Sanford-Burnham Center for Chemical Genomics, 2013)
